# According to patent US5563155A, “Individual stereosiomers of 7-[3-(aminoalkyl)-1-pyrrolidinyl]-quinolones and naphthyridones as antibacterial agents” (Warner-Lambert Company, priority 1995, dated 1996):
# Where two headings read alike, the source gives them in different places.
# Key:
# [1] = system: Esch. coli Vogel; experiment: median protective dose in mice given lethal systemic infections, Esch. coli Vogel; format: in vivo; conditions: Escherichia coli, single dose at time of challenge, read-out: median protective dose (PD50)
# Experimental: (§1) The in vivo activity is obtained when the compounds are tested according to the procedure of Miller, et al (Proc. Soc. Exp. Biol. Med. 57, 261, 1944). The median protective dose (PD50) was determined in mice given lethal systemic infections. Single doses of compound were given at time of challenge.
# (§2) By use of the above methods, the following minimum inhibiting concentration values (MICs in μg/mL), PD50 's in mg/kg, no effect phototoxicity dose in mg/kg and the cytotoxicity IC50 in μg/mL were obtained for representative enantiomers of the invention and compounds of the prior art as shown in the table.
# (§3) The in vivo data as PD50 s are reported below the line of MICs for the same compound.
# [2] = system: Strep. pyogenes C-203; experiment: in vitro antibacterial activity, microtitration dilution (MIC), Strep. pyogenes C-203; format: cell-based; conditions: Streptococcus pyogenes, C203, read-out: minimum inhibiting concentration (MIC)
# Outline: (§4)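 Readout: lowest compound concentration inhibiting growth (MIC, μg/mL), measured by serial dilution in microtitration format.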
# [3] = system: Strep. pheumoniae SV-1; experiment: in vitro antibacterial activity, microtitration dilution (MIC), Strep. pneumoniae SV-1; format: cell-based; conditions: Streptococcus pneumoniae, SV1, read-out: minimum inhibiting concentration (MIC)
# Outline: as §4
# [4] = system: Esch. coli Vogel; experiment: in vitro antibacterial activity, microtitration dilution (MIC), Esch. coli Vogel; format: cell-based; conditions: Escherichia coli, read-out: minimum inhibiting concentration (MIC)
# Outline: as §4
# [5] = system: Ent. cloacae MA2646; experiment: in vitro antibacterial activity, microtitration dilution (MIC), Ent. cloacae MA2646; format: cell-based; conditions: Enterobacter cloacae, read-out: minimum inhibiting concentration (MIC)
# Outline: as §4
# [6] = system: Strep. faecalis MGH-2; experiment: in vitro antibacterial activity, microtitration dilution (MIC), Strep. faecalis MGH-2; format: cell-based; conditions: Enterococcus faecalis, MGH2, read-out: minimum inhibiting concentration (MIC)
# Outline: as §4
# [7] = system: Staph. aureus H 228; experiment: in vitro antibacterial activity, microtitration dilution (MIC), Staph. aureus H 228; format: cell-based; conditions: Staphylococcus aureus, H228, read-out: minimum inhibiting concentration (MIC)
# Outline: as §4
# [8] = system: Pseud. aeruginosa UI-18; experiment: in vitro antibacterial activity, microtitration dilution (MIC), Pseud. aeruginosa UI-18; format: cell-based; conditions: Pseudomonas aeruginosa, UI18, read-out: minimum inhibiting concentration (MIC)
# Outline: as §4
# [9] = system: Klebs. pneumoniae MGH-2; experiment: in vitro antibacterial activity, microtitration dilution (MIC), Klebs. pneumoniae MGH-2; format: cell-based; conditions: Klebsiella pneumoniae, MGH2, read-out: minimum inhibiting concentration (MIC)
# Outline: as §4
# [10] = cytotoxicity, hamster V-79 cells, colony reduction; format: cell-based; conditions: 3 hours treatment, colonies counted after 5 days, read-out: Cytotox (cytotoxicity IC50)
# Experimental: The cytotoxicity data is obtained using hamster V-79 cells. The cells were suspended in tissue culture medium and grown overnight. Cells were treated with drug for 3 hours, washed free of drug and then replated, and the colonies counted after 5 days. The concentration of drug that reduced colones by 50% relative to control was recorded.
# as §2
# [11] = in vivo; set-up: species or system mice; conditions: mouse, po
# Experimental: The phototoxicity data is obtained using depilated mice. The compound was administered orally each day for four successive days, followed each day by 3 hours of UVA radiation. The mice were examined for any positive signs (redness, erythema) relative to control animals. The no effect dose and the 50% effect dose were determined. By use of the above methods, the following minimum inhibiting concentration values (MICs in μg/mL), PD50 's in mg/kg, no effect phototoxicity dose in mg/kg and the cytotoxicity IC50 in μg/mL were obtained for representative enantiomers of the invention and compounds of the prior art as shown in the table.
# [12] = system: Staph. aureus UC-76; experiment: in vitro antibacterial activity, microtitration dilution (MIC), Staph. aureus UC-76; format: cell-based; conditions: Staphylococcus aureus, UC76, read-out: minimum inhibiting concentration (MIC)
# Outline: as §4
# [13] = system: Prot. rettgeri M 1771; experiment: in vitro antibacterial activity, microtitration dilution (MIC), Prot. rettgeri M 1771; format: cell-based; conditions: Providencia rettgeri, M1771, read-out: minimum inhibiting concentration (MIC)
# Outline: as §4
# [14] = system: Strep. pyogenes C-203; experiment: median protective dose in mice given lethal systemic infections, Strep. pyogenes C-203; format: in vivo; conditions: Streptococcus pyogenes, single dose at time of challenge, read-out: median protective dose (PD50)
# Experimental: as §1, §2, §3
# [15] = system: Strep. pheumoniae SV-1; experiment: median protective dose in mice given lethal systemic infections, Strep. pneumoniae SV-1; format: in vivo; conditions: Streptococcus pneumoniae, single dose at time of challenge, read-out: median protective dose (PD50)
# Experimental: as §1, §2, §3
# [16] = system: Pseud. aeruginosa UI-18; experiment: median protective dose in mice given lethal systemic infections, Pseud. aeruginosa UI-18; format: in vivo; conditions: Pseudomonas aeruginosa, single dose at time of challenge, read-out: median protective dose (PD50)
# Experimental: as §1, §2, §3
Compound,ED50 ([1]; PO) [mg/kg],ED50 ([1]; SC) [mg/kg],MIC [2] [µg/mL],MIC [3] [µg/mL],MIC [4] [µg/mL],MIC [5] [µg/mL],MIC [6] [µg/mL],MIC [7] [µg/mL],MIC [8] [µg/mL],MIC [9] [µg/mL],CC50 at 3 h [10] [µg/mL],NOAEL at 96 h [11] [mg/kg],MIC [12] [µg/mL],MIC [13] [µg/mL],"ED50 ([14]; C203, PO) [mg/kg]","ED50 ([14]; C203, SC) [mg/kg]","ED50 ([15]; SV1, PO) [mg/kg]","ED50 ([15]; SV1, SC) [mg/kg]","ED50 ([16]; UI18, PO) [mg/kg]","ED50 ([16]; UI18, SC) [mg/kg]"
CCN[C@H](C)[C@@H]1CCN(c2c(F)cc3c(=O)c(C(=O)O)cn(C4CC4)c3c2OC)C1 [Example 17],14,4,0.003,0.003,0.2,0.2,0.013,0.013,3.1,0.4,130,> 100,0.003,0.8,2,0.6,,,,
C[C@@H](N)[C@@H]1CCN(c2nc3c(cc2F)c(=O)c(C(=O)O)cn3C2CC2)C1 [Example 8],6,1,0.013,0.006,0.05,0.05,0.05,0.05,0.8,0.1,100,55,0.06,0.4,,,14,2,35,12
"CN[C@H](C)[C@@H]1CCN(c2c(F)c(N)c3c(=O)c(C(=O)O)cn(C4CC4)c3c2F)C1 [Example 41, 3R,1R-5-amino-1-cyclopropyl-6,8-difluoro-7-[3-(1-N-methylaminoethyl)-1-pyrrolidinyl]-1,4-dihydro-4-oxo-3-quinoline carboxylic acid]",3,2,0.006,0.006,0.05,0.05,0.013,0.006,0.8,0.1,33,30,0.003,0.2,2,0.7,,,,
"CN[C@@H](C)[C@@H]1CCN(c2c(F)cc3c(=O)c(C(=O)O)cn(C4CC4)c3c2OC)C1 [Example 36, 3R,1S-1-cyclopropyl-6-fluoro-7-[3-(1-N-methylaminoethyl)-1-pyrrolidinyl]-8-methoxy-1,4-dihydro-4-oxo-3-quinolinecarboxylic acid]",4,1,0.003,0.013,0.05,0.05,0.025,0.013,0.8,0.1,33,> 100,0.013,0.2,1,0.1,,,,
"C[C@H](N)[C@@H]1CCN(c2nc3c(cc2F)c(=O)c(C(=O)O)cn3-c2ccc(F)cc2F)C1 [Example 43, 3R,1S-7-[3(1-aminoethyl)-1-pyrrolidinyl]-1-(2,4-difluorophenyl)-6-fluoro-1,4-dihydro-4-oxo-1,8-naphthyridine-3-carboxylic acid]",3.5,1,0.006,0.006,0.1,0.2,0.025,0.05,0.8,0.2,280,> 100,0.006,0.4,1,1,3,3,,
"C[C@@H](N)[C@@H]1CCN(c2cc3c(cc2F)c(=O)c(C(=O)O)cn3C2CC2)C1 [Example 4, 3R,1R-1-cyclopropyl-6-fluoro-7-[3-(1-aminoethyl)-1-pyrrolidinyl]-1,4-dihydro-4-oxo-3-quinolinecarboxylic acid]",72,2,0.1,0.025,0.1,0.2,0.1,0.2,1.6,0.4,140,,0.05,0.8,,,105,2,,
C[C@@H]([C@@H]1CCN(c2cc3c(cc2F)c(=O)c(C(=O)O)cn3C2CC2)C1)N(C)C [Example 73],5,4,0.05,0.05,0.1,0.2,0.1,0.1,1.6,0.2,,< 30,0.05,0.8,4,4,,,,
"CCN[C@@H](C)[C@@H]1CCN(c2c(F)cc3c(=O)c(C(=O)O)cn(C4CC4)c3c2OC)C1 [Example 18, 3R,1S-1-cyclopropyl-6-fluoro-7-[3-(1-N-ethylaminoethyl)-1-pyrrolidinyl]-8-methoxy-1,4-dihydro-4-3-quinolinecarboxylic acid]",5,2,0.006,0.005,0.1,0.1,0.025,0.013,3.1,0.2,110,> 100,0.003,0.4,0.5,0.2,,,,
"C[C@H](N)[C@H]1CCN(c2cc3c(cc2F)c(=O)c(C(=O)O)cn3C2CC2)C1 [Example 2, 3S,1S-1-cyclopropyl-6-fluoro-7-[3-(1-aminoethyl)-1-pyrrolidinyl]-1,4-dihydro-4-oxo-3-quinolinecarboxylic acid]",100,4,0.1,0.2,0.2,0.2,0.4,0.8,1.5,0.4,160,,0.1,0.8,,,> 100,12,,
"CN[C@@H](C)[C@@H]1CCN(c2c(F)c(N)c3c(=O)c(C(=O)O)cn(C4CC4)c3c2F)C1 [Example 42, 3R,1S-5-amino-1-cyclopropyl-6,8-difluoro-7-[3-(1-N-methylaminoethyl)-1-pyrrolidinyl]-1,4-dihydro-4-oxo-3-quinoline carboxylic acid]",3,0.4,0.006,0.006,0.025,0.025,0.013,0.006,0.8,0.05,17,< 30,0.003,0.1,0.55,0.25,,,,
C[C@H](N)[C@@H]1CCN(c2nc3c(cc2F)c(=O)c(C(=O)O)cn3C2CC2)C1 (relative stereo) [reference compound],,,,,,0.05,0.05,0.05,,0.1,48,55,,0.2,,,,,,
